ChEMBL document CHEMBL5380844, “Discovery of a Novel, Potent, Orally Active, and Safe Inhibitor Targeting Human Mitochondrial RNA Polymerase” (J Med Chem, 2023)

Assays:
[1] = Inhibition of ND1 transcript level in human A2780 cells at 500 nM measured after 12 hrs by RT-qPCR analysis relative to control; format: functional
A2780 = experiment: Antiproliferative activity against human A2780 cells incubated for 168 hrs by SRB method; format: functional, cell-based; conditions: A2780, 168 h

Compound | inhibition at 0.5 µM [1] | IC50 (A2780)
C[C@@H](Oc1ccc2c(-c3ccc(F)cc3Cl)cc(=O)oc2c1)C(=O)N1CC2CCC(C1)N2 | 8% | 0.043 µM
C[C@@H](Oc1ccc2c(-c3ccc(F)cc3Cl)ncnc2c1)C(=O)N1CCC[C@H](C(=O)O)C1 | 93% | > 10 µM
C[C@@H](Oc1ccc2c(-c3ccc(F)cc3Cl)cc(=O)oc2c1)C(=O)Nc1ccccn1 | 77% | 0.894 µM
CC(=O)NCCNC(=O)[C@@H](C)Oc1ccc2c(-c3ccc(F)cc3Cl)cc(=O)oc2c1 | 26% | 0.181 µM
O=C(O)[C@H]1CCCN(C(=O)COc2ccc3c(-c4ccc(F)cc4Cl)cc(=O)oc3c2)C1 | 39% | 0.373 µM
O=C(O)[C@H]1CCCN(C(=O)C2CC(Oc3ccc4c(-c5ccc(F)cc5Cl)cc(=O)oc4c3)C2)C1 (stereo not given in full) | 101% | > 10 µM
C[C@@H](Oc1ccc2c(-c3ccc(F)cc3Cl)cc(=O)oc2c1)C(=O)N1CCSCC1 | 34% | 0.302 µM
Cc1ccc(-c2cc(=O)oc3cc(O[C@H](C)C(=O)N4CC5CCC(C4)N5)ccc23)c(Cl)c1 | 28% | 0.131 µM
C[C@@H](Oc1ccc2c(-c3ccc(F)cc3Cl)cc(=O)oc2c1)C(=O)N1CC2CC(C1)N2 | 24% | 0.112 µM
C[C@@H](Oc1ccc2c(-c3ccc(F)cc3Cl)cc(=O)oc2c1)C(=O)NCCN(C)C | 31% | 0.2 µM
C[C@@H](Oc1ccc2c(-c3ccccc3F)cc(=O)oc2c1)C(=O)N1CC2CCC(C1)N2 | 33% | 0.216 µM
C[C@@H](Oc1ccc2c(-c3ccccc3Cl)cc(=O)oc2c1)C(=O)N1CC2CCC(C1)N2 | 15% | 0.052 µM
C[C@@H](Oc1ccc2c(-c3cccc(Cl)c3)cc(=O)oc2c1)C(=O)N1CC2CCC(C1)N2 | 32% | 0.246 µM
C[C@@H](Oc1ccc2c(-c3ccc(F)cc3Cl)cc(=O)oc2c1)C(=O)Nc1ncco1 | 81% | 1.22 µM
C[C@@H](Oc1ccc(C(=O)c2ccc(F)cc2Cl)cc1)C(=O)N1CCC[C@H](C(=O)O)C1 | 99% | > 10 µM
C[C@@H](Oc1ccc2c(-c3cccc4ccccc34)cc(=O)oc2c1)C(=O)N1CC2CCC(C1)N2 | 67% | 0.562 µM
Cc1cc(F)ccc1-c1cc(=O)oc2cc(O[C@H](C)C(=O)N3CC4CCC(C3)N4)ccc12 | 12% | 0.042 µM
C[C@H](Oc1ccc2c(-c3ccc(F)cc3Cl)cc(=O)oc2c1)C(=O)N1CCC[C@H](C(=O)O)C1 | 34% | 0.287 µM
C[C@@H](Oc1ccc2c(-c3ccc(F)cc3Cl)cc(=O)oc2c1)C(=O)NCCN | 26% | 0.282 µM
C[C@@H](Oc1ccc2c(-c3ccc(F)cc3Cl)cc(=O)oc2c1)C(=O)NCCO | 23% | 0.135 µM

Compound | inhibition at 0.5 µM [1] | IC50 (A2780)
CC(C)(Oc1ccc2c(-c3ccc(F)cc3Cl)cc(=O)oc2c1)C(=O)N1CCC[C@H](C(=O)O)C1 | 43% | 0.562 µM
C[C@@H](Oc1ccc2c(-c3ccsc3)cc(=O)oc2c1)C(=O)N1CC2CCC(C1)N2 | 24% | 0.129 µM
C[C@@H](Oc1ccc2c(-c3ccc(F)cc3Cl)cc(=O)oc2c1)C(=O)NCc1ccco1 | 41% | 0.405 µM
C[C@@H](Oc1ccc2c(-c3ccc(F)cc3Cl)cc(=O)oc2c1)C(=O)NCCN1CCOCC1 | 82% | 1.22 µM
Cc1cccc(-c2cc(=O)oc3cc(O[C@H](C)C(=O)N4CC5CCC(C4)N5)ccc23)c1 | 25% | 0.125 µM
Cc1ccccc1-c1cc(=O)oc2cc(O[C@H](C)C(=O)N3CC4CCC(C3)N4)ccc12 | 8% | 0.031 µM
C[C@@H](Oc1ccc2c(-c3ccc(F)cc3Cl)coc2c1)C(=O)N1CCC[C@H](C(=O)O)C1 | 105% | > 10 µM
O=C(O)[C@H]1CCCN(C(=O)C(F)(F)Oc2ccc3c(-c4ccc(F)cc4Cl)cc(=O)oc3c2)C1 | 37% | 0.322 µM
C[C@@H](Oc1ccc2c(-c3ccc(Cl)cc3Cl)cc(=O)oc2c1)C(=O)N1CC2CCC(C1)N2 | 24% | 0.056 µM
C[C@@H](Oc1ccc2c(-c3ccc(F)cc3)cc(=O)oc2c1)C(=O)N1CC2CCC(C1)N2 | 44% | 0.453 µM
Cc1cc(C)c(-c2cc(=O)oc3cc(O[C@H](C)C(=O)N4CC5CCC(C4)N5)ccc23)c(C)c1 | 16% | 0.074 µM
C[C@@H](Oc1ccc2c(-c3cccc(F)c3)cc(=O)oc2c1)C(=O)N1CC2CCC(C1)N2 | 75% | 0.866 µM
C[C@@H](Oc1ccc2c(-c3ccc(F)cc3Cl)cc(=O)oc2c1)C(=O)N1C2CCC1CNC2 | 15% | 0.065 µM
C[C@@H](Oc1ccc2c(-c3ccc(F)cc3Cl)cc(=O)[nH]c2c1)C(=O)N1CCC[C@H](C(=O)O)C1 | 88% | > 10 µM
CC(C)c1cc(=O)oc2cc(O[C@H](C)C(=O)N3CC4CCC(C3)N4)ccc12 | 93% | 2.23 µM
C[C@@H](Oc1ccc2c(-c3ccc(F)cc3Cl)cc(=O)oc2c1)C(=O)N1CCN(C)CC1 | 28% | 0.172 µM
CC(=O)N1CCN(C(=O)[C@@H](C)Oc2ccc3c(-c4ccc(F)cc4Cl)cc(=O)oc3c2)CC1 | 27% | 0.225 µM
C[C@@H](Oc1ccc2c(-c3ccc(F)cc3Cl)cc(=O)oc2c1)C(=O)N1CCNCC1 | 25% | 0.123 µM
C[C@@H](Oc1ccc2c(-c3cc4ccccc4s3)cc(=O)oc2c1)C(=O)N1CC2CCC(C1)N2 | 85% | 1.62 µM
Cc1ccc(-c2cc(=O)oc3cc(O[C@H](C)C(=O)N4CC5CCC(C4)N5)ccc23)cc1 | 11% | 0.062 µM

Compound | inhibition at 0.5 µM [1] | IC50 (A2780)
C[C@@H](Oc1ccc2c(-c3ccc(F)cc3Cl)csc2c1)C(=O)N1CCC[C@H](C(=O)O)C1 | 89% | > 10 µM
O=C(O)[C@H]1CCCN(C(=O)C2(Oc3ccc4c(-c5ccc(F)cc5Cl)cc(=O)oc4c3)CCC2)C1 | 42% | 0.692 µM
C[C@@H](Oc1ccc2c(-c3ccccc3)cc(=O)oc2c1)C(=O)N1CC2CCC(C1)N2 | 43% | 0.423 µM
C[C@@H](Oc1ccc2c(-c3ccc(F)cc3Cl)cccc2c1)C(=O)N1CCC[C@H](C(=O)O)C1 | 45% | 0.652 µM
Cc1cc(Cl)ccc1-c1cc(=O)oc2cc(O[C@H](C)C(=O)N3CC4CCC(C3)N4)ccc12 | 12% | 0.058 µM
C[C@@H](Oc1ccc2c(-c3ccc(F)cc3Cl)cc(=O)oc2c1)C(=O)N1CCC[C@H]1CO | 42% | 0.432 µM
C[C@@H](Oc1ccc2c(-c3ccc(F)cc3Cl)cc(=O)oc2c1)C(=O)NCCC1CCOCC1 | 73% | 0.822 µM
C[C@@H](Oc1ccc2c(ccn2-c2ccc(F)cc2Cl)c1)C(=O)N1CCC[C@H](C(=O)O)C1 | 97% | > 10 µM
C[C@@H](Oc1ccc2c(-c3ccc(Cl)cc3)cc(=O)oc2c1)C(=O)N1CC2CCC(C1)N2 | 24% | 
COCCNC(=O)[C@@H](C)Oc1ccc2c(-c3ccc(F)cc3Cl)cc(=O)oc2c1 | 25% | 0.152 µM
C[C@@H](CO)NC(=O)[C@@H](C)Oc1ccc2c(-c3ccc(F)cc3Cl)cc(=O)oc2c1 | 32% | 0.208 µM
C[C@@H](Oc1ccc2c(C34C[C@H]5C[C@H](C3)C[C@@H](C4)C5)cc(=O)oc2c1)C(=O)N1CC2CCC(C1)N2 | 22% | 0.092 µM
C[C@@H](Oc1ccc2c(-c3ccc(F)cc3Cl)cc(=O)oc2c1)C(=O)N1CCOCC1 | 25% | 0.093 µM
C[C@@H](Oc1ccc2c(-c3ccc(F)cc3Cl)cc(=O)oc2c1)C(=O)NCCN1CCS(=O)(=O)CC1 | 86% | 2.52 µM
C[C@@H](Oc1ccc2c(C3CCCCC3)cc(=O)oc2c1)C(=O)N1CC2CCC(C1)N2 | 31% | 0.252 µM
C[C@@H](Oc1ccc2c(-c3ccncc3)cc(=O)oc2c1)C(=O)N1CC2CCC(C1)N2 | 78% | 0.832 µM
C[C@@H](Oc1ccc2c(-c3ccc(F)cc3Cl)cc(=O)oc2c1)C(=O)N1CC2(COC2)C1 | 68% | 0.758 µM
C[C@@H](Oc1cccc(-c2ccc(F)cc2Cl)c1)C(=O)N1CCC[C@H](C(=O)O)C1 | 95% | > 10 µM
